Paper PMC7767166, “Imidazole and Imidazolium Antibacterial Drugs Derived from Amino Acids” (Pharmaceuticals, 2020)
Like-named read-outs stand apart in the source and are kept apart here.

Columns and labels:
Bacillus subtilis 1904-E = assay: Bacterial cell viability assay (Resazurin), MBC; format: cell-based; conditions: read-out: B. subtilis MBC
Protocol: (§1) The in vitro antibacterial activities of the synthesized compounds were examined against E. coli and B. subtilis. Bacteria were incubated in culture media with varying concentrations of the examined compound and the antibacterial properties were determined by observation of the optical density at 560 nm (bacteriostatic activity) and by the Resazurin cell viability assay (bactericidal activity). The corresponding minimal bactericidal concentration (MBC) and minimum inhibitory concentration (MIC) values that were obtained are summarized in Table 1 (please refer to Table S1 for MIC and MBC values in μM).
(§2) Two bacterial strains were used in the antibacterial assays: Escherichia coli DH5α as a Gram-negative model and Bacillus subtilis 1904-E as a Gram-positive model. Both bacterial strains were donated to our laboratory and can be provided on request by contacting the corresponding authors. Both bacterial strains were incubated at 37 °C and the pre-inoculum incubation time was of 24 h. Liquid Luria-Bertani (LB) medium was used for E. coli DH5α and nutrient broth (NB) for B. subtilis.
(§3) The bacteria cell bank suspensions were thawed and inoculated in the appropriate liquid broth for 24 h at 37 °C with mild agitation. A dilution from these culture solutions was used for the following tests, corresponding to an inoculum of 1 × 10^7 CFU/mL. Stock solutions of all the tested compounds were prepared in DMSO at a concentration of 100 mg/mL, aliquoted, and stored at −20 °C.
(§4) (B) Bacterial cell viability assay: Cell viability was analyzed using a Resazurin (7-Hydroxy-3H-phenoxazin-3-one 10-oxide) assay in a 96-well plate. Once the bacterial cultures of growth inhibition assay had been grown for a total of 24 h, 25 μL of a 0.1 mg/mL resazurin (prepared in LB or NB medium) were added to each well and incubated in the dark at 37 °C for 1 h under stirring. Resazurin has a blue color at the testing pH and turns pink when reduced by the viable bacteria to resorufin. Therefore, pink wells indicate metabolizing bacteria, while blue wells are indicative of bacteria that have lost their ability to convert resazurin to resorufin. Different controls were made in order to corroborate the MBC value obtained by the resazurin assay. The change of color was confirmed at 1, 4, and 24 h after its addition. The viability of bacteria was verified (either confirmed or rejected) by the colony plate-counting method, by seeding 10 μL from the cell culture onto tryptone soy agar plates and observing the presence or absence of bacterial growth after 24 h at 37 °C.

Escherichia coli DH5α = assay: Bacterial cell viability assay (Resazurin), MBC; format: cell-based; conditions: read-out: E. coli MBC
Protocol: as §1, §2, §3, §4

[1] = Critical aggregation concentration by pyrene fluorescence (I1/I3); format: physicochemical; conditions: for CAC Fluorescence, CCM:W, CAC1 / CAC Fluorescence, CCM:W, CAC2: 1/1 bacterial cell culture medium/water; for CAC Fluorescence, CCM:W, CAC1 / CAC Fluorescence, CCM:W, CAC2 / CAC Fluorescence, W: 25 °C; for CAC Fluorescence, CCM:W, CAC1: first break point; for CAC Fluorescence, CCM:W, CAC2: second break point; for CAC Fluorescence, W: in water, from the break point
Text: To investigate the microenvironment of the critical aggregation concentration (CAC) for self-assembly in water and in the bacterial cell culture medium by fluorescence, the intensity ratio of two of the peaks (I1/I3) of the pyrene fluorescence spectrum was used. Plots of the pyrene I1/I3 ratio as a function of the total surfactant concentration show a typical sigmoidal decrease in the region where self-assembly takes place. At low concentrations, this ratio is larger as it corresponds to a polar environment for pyrene. When the surfactant concentration increases this ratio decreases rapidly, as the self-assembly favors the location of pyrene in a more hydrophobic environment, until reaching a roughly constant value because of the full incorporation of the probe into the hydrophobic region of the aggregates. Different approaches have been used to estimate CAC values from I1/I3 ratios. The most common approach is the use of the break points, either directly or by extrapolating the values from the intersection of the two straight lines defined at the constant and variable regions of the I1/I3 sigmoidal curve. As CAC represents the threshold of concentration at which self-aggregation starts, the corresponding value can be estimated from the break point at lower concentration (see Figures S9–S14). Fluorescence studies were carried out using MilliQ® water and 1/1 MilliQ® water/bacterial cell culture medium, because with the pure cell culture medium, a strong broad fluorescence emission band was observed precluding an accurate analysis. […] The corresponding CACs obtained in water and in the 1/1 mixture of water/bacterial cell culture medium by fluorescence are shown in Table 2. Pyrene was used as a fluorescence probe to determine the CAC of the compounds in water and 1/1 water/bacterial cell culture medium at 25 ± 1 °C. Fluorescence measurements were performed with a Spex Fluorolog 3-11 instrument equipped with a 450 W xenon lamp (right angle mode). Firstly, a stock pyrene solution of 1.98 × 10^−4 mol/L was prepared in ultrapure methanol. Then, solutions of the imidazole and imidazolium salt compounds (ranging from 6 to 3 × 10^−3 mmol/L) were prepared in different vials and 5 μL of pyrene solution was transferred into the vials, reaching a final pyrene concentration of 9.89 × 10^−7 mol/L in each vial. Fluorescence spectra of pyrene were recorded from 200 to 650 nm after excitation at 337 nm, and the spectra were not corrected for the Xe lamp spectral response. The slit width was set at 5 nm for both excitation and emission. The peak intensities at 373 and 385 nm were determined as I1 and I3, respectively. The ratios of the peak intensities at 373 and 385 nm (I1/I3) for the emission spectra were recorded as a function of the logarithm of concentration. The CAC values were taken from the break point. Samples were excited with a 337 nm NanoLED.

E. coli and B. subtilis = assay: MBC to MIC ratio (bactericidal vs bacteriostatic); format: cell-based; conditions: from exact MBC and MIC values of Table 1
Text: The Gram-positive cell wall is composed of a thick, multilayered peptidoglycan sheath outside of the cytoplasmic membrane, while the Gram-negative cell wall is composed of an outer membrane linked by lipoproteins to thin, mainly single-layered peptidoglycan. The peptidoglycan is located within the periplasmic space that is created between the outer and inner membranes. […] Compounds with MBC/MIC >4 are considered to be bacteriostatic. In all the cases in which we could obtain exact MBC and MIC values (Table 1, entries 2, 3, 8 and 9), their ratio was equal to or minor than four.

[2] = Solubility in media of the fluorescence studies; format: physicochemical; conditions: water and 1/1 water/bacterial cell culture medium
Protocol: Fluorescence studies were carried out using MilliQ® water and 1/1 MilliQ® water/bacterial cell culture medium, because with the pure cell culture medium, a strong broad fluorescence emission band was observed precluding an accurate analysis. […] The corresponding CACs obtained in water and in the 1/1 mixture of water/bacterial cell culture medium by fluorescence are shown in Table 2.

[3] = 24 h, Resazurin after 24 h growth, nutrient broth, minimum of three experiments
[4] = mode of at least three experiments
[5] = Resazurin after 24 h growth, LB medium, minimum of three experiments
[6] = bacterial cell culture medium/water

CAC Fluorescence, CCM:W, CAC1 [1] [mM]	CAC Fluorescence, CCM:W, CAC2 [1] [mM]	CAC Fluorescence, W [1] [mM]	melting point [°C]	first break point (I1/I3 vs concentration) [1, 6] [µM]	second break point (I1/I3 vs concentration) [1, 6]	solubility [2]	SMILES	MBC (Bacillus subtilis 1904-E; [3]) [µg/mL]	MBC (Bacillus subtilis 1904-E; [4]) [µM]	MBC (Escherichia coli DH5α; [5]) [µg/mL]	MBC (Escherichia coli DH5α; [4]) [µM]	bactericidal or bacteriostatic (MBC to MIC ratio equal to or less than four = bactericidal) (E. coli and B. subtilis)
3.46	8.4	4.57	33	–	–	–	CCCCNC(=O)[C@H](C(C)C)n1cc[n+](Cc2ccccc2)c1 [Compound 2b]	> 1000	2590	> 2000	> 5000	–
0.018	0.325	0.033	56.1	–	–	–	CCCCCCCCCCCCNC(=O)[C@H](Cc1ccccc1)n1ccnc1 [Compound 3a]	≤ 16	42	> 2000	> 5000	–
0.006	0.048	0.084	–	6	ca. 48 μM	–	CCCCCCCCCCCCNC(=O)[C@H](C(C)C)n1cc[n+](Cc2ccccc2)c1 [Compound 1b]	≤ 16	18	256	581	true bactericidal activity
0.004	0.045	0.085	–	–	–	–	CCCCCCCCCCCCNC(=O)[C@H](C(C)C)n1ccnc1 [Compound 1a]	≤ 16	48	> 2000	> 6000	–
0.063	0.33	0.098	16	–	–	–	CCCCCCCCCCCCNC(=O)[C@H](Cc1ccccc1)n1cc[n+](Cc2ccccc2)c1 [Compound 3b]	–	7	128	229	true bactericidal activity
0.016	0.21	0.010	–	–	–	–	CCCCCCCCCCCCNC(=O)[C@H](C(C)C)n1cc[n+](Cc2cccc(C[n+]3ccn([C@@H](C(=O)NCCCCCCCCCCCC)C(C)C)c3)c2)c1 [Compound 1c]	32	34	256	269	true bactericidal activity
2.25	3.54	2.34	85	–	–	–	CCCCNC(=O)[C@H](C(C)C)n1cc[n+](Cc2cccc(C[n+]3ccn([C@@H](C(=O)NCCCC)C(C)C)c3)c2)c1 [Compound 2c]	256	361	> 2000	> 2900	–
–	–	–	60	–	–	solubility problems	CCCCCCCCCCCCNC(=O)[C@@H](Cc1ccccc1)n1cc[n+](Cc2cccc(C[n+]3ccn([C@@H](Cc4ccccc4)C(=O)NCCCCCCCCCCCC)c3)c2)c1 [Compound 3c]	64	62	2000	1990	true bactericidal activity
2.89	5.4	4.31	–	–	–	–	CCCCNC(=O)[C@H](C(C)C)n1ccnc1 [Compound 2a]	> 2000	> 9000	> 2000	> 9000	–
